Assay: Human HepG2 cell viability assay in 384 well format
Format: toxicity, cell-based
Set-up: dose 125 nL, time 70.5 hour; concentration not given beside the values
Details: HepG2 cells, read-out: Inhibition

For `CN(Cc1ccncc1)CC1CCCN(CCc2ccc(Cl)cc2)C1` (stereo unspecified), the cytotoxicity at 70.5 h was -0.313%.

In the case of `CN(C)C(=O)c1ccc(-c2cccc3c2CCNC3)o1`, the cytotoxicity at 70.5 h is reported as -5.11%.

For `CCc1nnsc1C(=O)NCCC1CCCN(C(C)C)C1` (stereo unspecified), the cytotoxicity at 70.5 h was 24.8%.

In the case of `Cc1cnn(C2(C(=O)O)CCN(c3ccnc4cc(Cl)ccc34)CC2)c1`, the cytotoxicity at 70.5 h is reported as -5.05%.

With `Cc1ccc2nc(C3CCCN3Cc3csc(C)n3)[nH]c2c1` (stereo unspecified) the cytotoxicity at 70.5 h was -6.25%.

Work on `COc1ccc(Cn2cc(C(=O)N(C)Cc3ccon3)nn2)cc1` yielded a cytotoxicity at 70.5 h of -3.92%.

`Cc1ccc2nc(C(=O)N3C[C@@H](C(=O)O)[C@H](c4ccccc4)C3)cn2c1` showed a cytotoxicity at 70.5 h of -8.12%.

With `COCCC(=O)N1CCCCC1c1ccc(F)cc1` (stereo unspecified) the cytotoxicity at 70.5 h was 5.22%.

For `CCc1nc(N2CCC3(CC2)CC(=O)N(Cc2ccc(Cl)cc2)C3)no1`, the cytotoxicity at 70.5 h was -10.7%.

Work on `Cc1nc2c(c(NCCc3nccs3)n1)CCN(CC1CC1)CC2` yielded a cytotoxicity at 70.5 h of -14.3%.

`O=C(NCc1nc[nH]n1)c1cc(COc2cccc(F)c2)[nH]n1` showed a cytotoxicity at 70.5 h of 11.1%.

For `Cn1ccnc1C(=O)N1CCCC(Cn2cc(CO)nn2)C1` (stereo unspecified), the cytotoxicity at 70.5 h was -1.24%.

Work on `CN(C)c1cnn(CC(=O)N2CCN(Cc3cccs3)CC2)c(=O)c1` yielded a cytotoxicity at 70.5 h of -8.39%.

For `COCc1cc(N2CCOC(c3ccc(Cl)cc3)C2)ncn1` (stereo unspecified), the cytotoxicity at 70.5 h was -10.8%.

`CC(C)NC(=O)CNC(C)COc1ccccc1` (stereo unspecified) showed a cytotoxicity at 70.5 h of -12.1%.

`c1ccc(CCc2noc(CN3CCC(N4CCSCC4)CC3)n2)cc1` showed a cytotoxicity at 70.5 h of -2.58%.

For `CCC(CNC(=O)c1cc(CC(C)C)nn1C)N(C)CC` (stereo unspecified), the cytotoxicity at 70.5 h was -8.14%.

`Cc1n[nH]cc1C(=O)NCc1cccnc1N1CCc2ccccc2C1` showed a cytotoxicity at 70.5 h of -3.05%.

For `O=C(CN1C(=O)CCNC1=O)N1CCC(c2ccc(F)cc2)C1` (stereo unspecified), the cytotoxicity at 70.5 h was -5.75%.

With `CN(C)CC1(O)CCCN(c2noc(-c3ccccc3)n2)CC1` (stereo unspecified) the cytotoxicity at 70.5 h was 6.79%.

`CN(C)Cc1csc(-c2nccn2Cc2ccsc2)c1` showed a cytotoxicity at 70.5 h of 3.09%.

With `CCNC(=O)C1CCN(c2cc(CC)nc3ccnn23)C1` (stereo unspecified) the cytotoxicity at 70.5 h was 15.1%.

Molecule `Cc1ccc2nc(CN(C)Cc3n[nH]c4c3CCCCC4)[nH]c2c1C` has a cytotoxicity at 70.5 h of -3.25%.

`CCC(C)Oc1ccccc1CN1Cc2ncccc2C1=O` (stereo unspecified) gave a cytotoxicity at 70.5 h of 0.0852%.

Work on `CCCn1cc(NC(=O)NCC2CCS(=O)(=O)C2)nn1` (stereo unspecified) yielded a cytotoxicity at 70.5 h of -9.78%.

`CCc1cc(N(C)Cc2noc(CC(C)C)n2)ncn1` gave a cytotoxicity at 70.5 h of 21.2%.

In the case of `O=C(CN1C[C@H]2CC[C@@H]1CN(Cc1ccccn1)C2)NCc1cccs1`, the cytotoxicity at 70.5 h is reported as -7.94%.

Molecule `Cc1nc(CCNC2CCN(Cc3ccccc3)C2)sc1C` (stereo unspecified) has a cytotoxicity at 70.5 h of -4.05%.

`CC(CO)CN(Cc1ccccc1)Cc1cnc2ccccc2n1` (stereo unspecified) showed a cytotoxicity at 70.5 h of -8.82%.

In the case of `CCC[C@@H]1CN(C(=O)c2c(F)ccc(C)c2Cl)C[C@H]1C(=O)O`, the cytotoxicity at 70.5 h is reported as 0.166%.

In the case of `CCc1oc(C(=O)N(C)Cc2ccncc2)cc1CN(CC)CC`, the cytotoxicity at 70.5 h is reported as -6.93%.

For `CCCOC(=O)N1CCCn2nc(C(=O)Nc3ccccc3)cc2C1`, the cytotoxicity at 70.5 h was -9.85%.

Molecule `O[C@@H]1CN(CC2CC2)CC[C@H]1N1CCN(c2ccccc2F)CC1` has a cytotoxicity at 70.5 h of 0.0849%.

Work on `CCCc1nc(N2CCN(Cc3ccccn3)CC2)c2cnn(C)c2n1` yielded a cytotoxicity at 70.5 h of -6.11%.

For `c1ccc(N2CCCC(c3nc(-c4cccnn4)no3)C2)nc1` (stereo unspecified), the cytotoxicity at 70.5 h was -11.5%.

In the case of `O=C1CC2(CCN(Cc3ncc[nH]3)CC2)CN1Cc1ccc(Cl)cc1`, the cytotoxicity at 70.5 h is reported as -2.21%.

Molecule `COc1cccc(-c2n[nH]cc2C(=O)NC(C)c2n[nH]c(C)n2)c1` (stereo unspecified) has a cytotoxicity at 70.5 h of 13.9%.

Molecule `CN1CCCN(c2cnn(Cc3ccncc3)c(=O)c2)CC1` has a cytotoxicity at 70.5 h of -9.95%.

For `CCc1cc(N2CCC(NCCSc3nnnn3C)CC2)nc(C)n1`, the cytotoxicity at 70.5 h was -0.17%.

Molecule `Cc1nccn1CCC1CCN(c2ncccn2)CC1` has a cytotoxicity at 70.5 h of -6.44%.

With `CCN(CC)CCN(C)c1nc(-c2ccc(Cl)cc2)nc2c1CNC2` the cytotoxicity at 70.5 h was 20.6%.

In the case of `CN(CCCOc1ccccc1Cl)C(=O)CN1CCCCCC1=O`, the cytotoxicity at 70.5 h is reported as -0.255%.

In the case of `COc1cccc(CN2CCC(CO)(Cc3ccc(Cl)cc3)CC2)c1O`, the cytotoxicity at 70.5 h is reported as -5.98%.

Molecule `COc1ccc2c(C)c(C(=O)NC3CCCOC3)oc2c1` (stereo unspecified) has a cytotoxicity at 70.5 h of -4.44%.

With `O=C(NC1CC1)[C@@H]1CCO[C@@H]2CCN(CC3CCC3)C[C@@H]21` the cytotoxicity at 70.5 h was -11.4%.

`COCCN1CCOCC2(CCN(c3cnccn3)CC2)C1` gave a cytotoxicity at 70.5 h of 8.46%.

With `Cc1cccc(CN2CCC3(CCC(CC(=O)N(C)C)CC3)CC2)n1` the cytotoxicity at 70.5 h was -8.22%.

`CC(C)N1CCOCC2(CCN(c3cnccn3)CC2)C1` showed a cytotoxicity at 70.5 h of -11.1%.

Molecule `Cc1ccc(CN2CCC3(CCCN3S(C)(=O)=O)CC2)s1` has a cytotoxicity at 70.5 h of -11.8%.

`Cc1ccc(CN2CCCC3(CCCC(=O)N3C)C2)s1` (stereo unspecified) gave a cytotoxicity at 70.5 h of -9.33%.

Work on `O=C(c1ccccn1)N1CCC2(CCCN(c3nncs3)C2)C1` (stereo unspecified) yielded a cytotoxicity at 70.5 h of -9.42%.

Molecule `COCCN1CCC2(CC1)CC(N1CCOCC1)c1cc(C)ccc12` (stereo unspecified) has a cytotoxicity at 70.5 h of 4.82%.

In the case of `CN(Cc1ccccn1)C1CCC[C@@H]2CN(CC3CC3)C[C@H]12` (stereo partly specified), the cytotoxicity at 70.5 h is reported as 17.7%.

For `C[C@@H]1CN(C2CCOC2)C[C@]12CCN(Cc1cccnc1)C2=O` (stereo partly specified), the cytotoxicity at 70.5 h was -10.6%.

In the case of `CN1CCN(Cc2cccnc2)C(=O)C12CCN(CC1CCOC1)CC2` (stereo unspecified), the cytotoxicity at 70.5 h is reported as -6.06%.

For `c1nc(N2CCc3nc[nH]c3C2)c2cc[nH]c2n1`, the cytotoxicity at 70.5 h was 2.38%.
